Legend:
[1] = target: T1, ABL T315I BAF3 cells (Homo sapiens, UniProt P00519, T315I, cells depend on it); assay: 96-well XTT cell survival assay, BaF3 ABL T315I; type: cell-based; conditions: 72 hours, read-out: CELL BIO ABL T315I BAF3 XTT (IC50)
T1 construct: ABL T315I BAF3; fused on or other part: P11274 (Breakpoint cluster region protein)
In short: (§1)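 Ba/F3 cells in RPMI 1640 with 10% FBS (IL-3 medium for maintenance) were seeded at 5000-8000 cells/well and exposed to compound dilutions in duplicate for 72 h at 37° C. Viability read by XTT/PMS, absorbance 405 nm minus 650 nm after 2-6 h.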

[2] = target: T2, ABL P210WT BAF3 cells (Homo sapiens, UniProt P00519); assay: 96-well XTT cell survival assay, BaF3 ABL P210WT; type: cell-based; conditions: ABL P210 WT, 72 hours, read-out: CELL BIO ABL P210WT BAF3 XTT (IC50)
T2 construct: ABL P210WT BAF3; fused on or other part: P11274 (Breakpoint cluster region protein)
In short: as §1

[3] = target: T3, purified and unphosphorylated T315I Abl kinase domain (ABL_T315I_0P) (Mus musculus, UniProt P00520, T315I); assay: c-Abl T315I (unphosphorylated kinase domain) pyruvate kinase/lactate dehydrogenase coupled enzyme assay; type: biochemical; conditions: 10 μM ATP
T3 construct: The c-Abl T3151 KD (kinase domain) was purified as follows; Met-Ser-Leu (vector-derived residues) (N); made in house; host or cells: E. coli BL21(DE3) strains (Codon+RIL, or pSA0145 for the lambda phosphatase co-expression plasmid)
T3 sequence (P00520 242-493 T315I limits assumed): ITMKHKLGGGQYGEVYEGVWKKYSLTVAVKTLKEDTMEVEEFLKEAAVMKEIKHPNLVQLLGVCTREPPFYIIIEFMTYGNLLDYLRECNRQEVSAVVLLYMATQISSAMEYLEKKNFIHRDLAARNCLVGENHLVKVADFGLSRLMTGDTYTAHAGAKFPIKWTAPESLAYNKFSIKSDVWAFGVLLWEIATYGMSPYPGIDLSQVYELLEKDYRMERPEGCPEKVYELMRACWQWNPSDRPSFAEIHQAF

Row | ABL_T315I_0P (IC50) [3] | Compound | GI50 [1] [nM] | GI50 [2] [nM]
1 | D (<0.01 μM) | COc1ccccc1-c1c[nH]c2ncc(-c3cncc(C(O)C(=O)N(C)C)c3)c(Cl)c12 (stereo not drawn) [2-{5-[4-Chloro-3-(2-methoxy-phenyl)-1H-pyrrolo[2,3-b]pyridin-5-yl]-pyridin-3-yl}-2-hydroxy-N,N-dimethyl-acetamide] | < 10 | < 10
2 | D (<0.01 μM) | COc1ccccc1-c1c[nH]c2ncc(-c3cncc(CC(=O)N(C)C)c3)c(Cl)c12 [2-{5-[4-Chloro-3-(2-methoxy-phenyl)-1H-pyrrolo[2,3-b]pyridin-5-yl]-pyridin-3-yl}-N,N-dimethyl-acetamide] | 10 to 100 | 10 to 100
3 | D (<0.01 μM) | COc1ncccc1-c1c[nH]c2ncc(-c3cncc(C(O)C(=O)N(C)C)c3)c(Cl)c12 (stereo not drawn) [2-{5-[4-Chloro-3-(2-methoxy-pyridin-3-yl)-1H-pyrrolo[2,3-b]pyridin-5-yl]-pyridin-3-yl}-2-hydroxy-N,N-dimethyl-acetamide] | 100 to 1000 | 10 to 100
4 | D (<0.01 μM) | COc1cnccc1-c1c[nH]c2ncc(-c3cncc(C(O)C(=O)N(C)C)c3)c(Cl)c12 (stereo not drawn) [2-{5-[4-Chloro-3-(3-methoxy-pyridin-4-yl)-1H-pyrrolo[2,3-b]pyridin-5-yl]-pyridin-3-yl}-2-hydroxy-N,N-dimethyl-acetamide] | > 1000 | > 1000
5 | C (0.1-0.01 μM) | CN(C)C(=O)C(O)c1cncc(-c2cnc3[nH]cc(-c4ccc(F)cc4)c3c2Cl)c1 (stereo not drawn) [2-{5-[4-Chloro-3-(4-fluoro-phenyl)-1H-pyrrolo[2,3-b]pyridin-5-yl]-pyridin-3-yl}-2-hydroxy-N,N-dimethyl-acetamide] | > 1000 | 100 to 1000
6 | D (<0.01 μM) | CCc1c(-c2cncc(C(O)C(=O)N(C)C)c2)cnc2[nH]cc(-c3ccccc3OC)c12 (stereo not drawn) [2-{5-[4-Ethyl-3-(2-methoxy-phenyl)-1H-pyrrolo[2,3-b]pyridin-5-yl]-pyridin-3-yl}-2-hydroxy-N,N-dimethyl-acetamide] | 100 to 1000 | 100 to 1000
7 | D (<0.01 μM) | COc1ccccc1-c1c[nH]c2ncc(-c3cncc(C(=O)C(=O)N(C)C)c3)c(OC)c12 [2-{5-[4-Methoxy-3-(2-methoxy-phenyl)-1H-pyrrolo[2,3-b]pyridin-5-yl]-pyridin-3-yl}-N,N-dimethyl-2-oxo-acetamide] | 10 to 100 | 100 to 1000
8 | D (<0.01 μM) | COc1ccccc1-c1c[nH]c2ncc(-c3cccc(C(=O)N(C)C)c3)c(C)c12 [3-[3-(2-Methoxy-phenyl)-4-methyl-1H-pyrrolo[2,3-b]pyridin-5-yl]-N,N-dimethyl-benzamide] | 10 to 100 | 10 to 100
9 | D (<0.01 μM) | COc1ccc(F)cc1-c1c[nH]c2ncc(-c3cnc(N)c(C(=O)N(C)C)n3)c(Cl)c12 [3-amino-6-[4-chloro-3-(5-fluoro-2-methoxy-phenyl)-1H-pyrrolo[2,3-b]pyridin-5-yl]-pyrazine-2-carboxylic acid dimethylamide] | 10 to 100 | < 10
10 | B (1.0-0.1 μM) | CN(C)C(=O)c1cncc(-c2cnc3[nH]nc(-c4ccccc4)c3c2Cl)c1 [5-(4-Chloro-3-phenyl-1H-pyrazolo[3,4-b]pyridin-5-yl)-N,N-dimethyl-nicotinamide] | > 1000 | > 1000
11 | C (0.1-0.01 μM) | COc1ccccc1-c1c[nH]c2ncc(Br)c(N)c12 [5-Bromo-3-(2-methoxy-phenyl)-1H-pyrrolo[2,3-b]pyridin-4-ylamine] | > 1000 | > 1000
12 | B (1.0-0.1 μM) | COc1ccccc1-c1c[nH]c2ncc(Br)c(SC)c12 [5-Bromo-3-(2-methoxy-phenyl)-4-methylsulfanyl-1H-pyrrolo[2,3b]pyridine] | > 1000 | > 1000
13 | D (<0.01 μM) | CN(C)C(=O)c1cncc(-c2cnc3[nH]cc(-c4cccc(F)c4F)c3c2Cl)c1 [5-[4-Chloro-3-(2,3-difluoro-phenyl)-1H-pyrrolo[2,3-b]pyridin-5-yl]-N,N-dimethyl-nicotinamide] | 100 to 1000 | 100 to 1000
14 | C (0.1-0.01 μM) | CN(C)C(=O)c1cncc(-c2cnc3[nH]cc(-c4ccc(F)cc4F)c3c2Cl)c1 [5-[4-Chloro-3-(2,4-difluoro-phenyl)-1H-pyrrolo[2,3-b]pyridin-5-yl]-N,N-dimethyl-nicotinamide] | > 1000 | > 1000
15 | C (0.1-0.01 μM) | CNC(=O)c1cncc(-c2cnc3[nH]cc(-c4ccccc4F)c3c2Cl)c1 [5-[4-Chloro-3-(2-fluoro-phenyl)-1H-pyrrolo[2,3-b]pyridin-5-yl]-N-methyl-nicotinamide] | > 1000 | > 1000
16 | D (<0.01 μM) | CSc1ccccc1-c1c[nH]c2ncc(-c3cncc(C(=O)N(C)C)c3)c(Cl)c12 [5-[4-Chloro-3-(2-methylsulfanyl-phenyl)-1H-pyrrolo[2,3-b]pyridin-5-yl]-N,N-dimethyl-nicotinamide] | > 1000 | > 1000

The remaining lines, values behind:

Row | Compound | ABL_T315I_0P (IC50) [3] | GI50 [1] [nM] | GI50 [2] [nM]
17 | CN(C)C(=O)C(O)c1cncc(-c2cnc3[nH]cc(-c4ccccc4F)c3c2Cl)c1 (stereo not drawn) [2-{5-[4-Chloro-3-(2-fluoro-phenyl)-1H-pyrrolo[2,3-b]pyridin-5-yl]-pyridin-3-yl}-2-hydroxy-N,N-dimethyl-acetamide] | D (<0.01 μM) | 100 to 1000 | 100 to 1000
18 | COc1ccccc1-c1n[nH]c2ncc(-c3cncc(C(O)C(=O)N(C)C)c3)c(Cl)c12 (stereo not drawn) [2-{5-[4-Chloro-3-(2-methoxy-phenyl)-1H-pyrazolo[3,4-b]pyridin-5-yl]-pyridin-3-yl}-2-hydroxy-N,N-dimethyl-acetamide] | C (0.1-0.01 μM) | 100 to 1000 | 100 to 1000
19 | COc1ccncc1-c1c[nH]c2ncc(-c3cncc(C(O)C(=O)N(C)C)c3)c(Cl)c12 (stereo not drawn) [2-{5-[4-Chloro-3-(4-methoxy-pyridin-3-yl)-1H-pyrrolo[2,3-b]pyridin-5-yl]-pyridin-3-yl}-2-hydroxy-N,N-dimethyl-acetamide] | D (<0.01 μM) | 100 to 1000 | 100 to 1000
20 | COc1ccccc1-c1c[nH]c2ncc(-c3cncc(C(O)C(=O)N(C)C)c3)c(C#N)c12 (stereo not drawn) [2-{5-[4-Cyano-3-(2-methoxy-phenyl)-1H-pyrrolo[2,3-b]pyridin-5-yl]-pyridin-3-yl}-2-hydroxy-N,N-dimethyl-acetamide] | D (<0.01 μM) | > 1000 | > 1000
21 | COc1ccccc1-c1c[nH]c2ncc(Br)c(N(C)CCO)c12 [2-{[5-Bromo-3-(2-methoxy-phenyl)-1H-pyrrolo[2,3-b]pyridin-4-yl]-methyl-amino}-ethanol] | C (0.1-0.01 μM) | > 1000 | > 1000
22 | CN(C)C(=O)c1nc(-c2cnc3[nH]cc(-c4ccccc4)c3c2Cl)cnc1N [3-Amino-6-(4-chloro-3-phenyl-1H-pyrrolo[2,3-b]pyridin-5-yl)-pyrazine-2-carboxylic acid dimethylamide] | D (<0.01 μM) | 100 to 1000 | 100 to 1000
23 | COc1ccccc1-c1c[nH]c2ncc(-c3cccc(C(=O)N(C)C)c3)c(Cl)c12 [3-[4-Chloro-3-(2-methoxy-phenyl)-1H-pyrrolo[2,3-b]pyridin-5-yl]-N,N-dimethyl-benzamide] | D (<0.01 μM) | 10 to 100 | 10 to 100
24 | CN(C)C(=O)c1nc(-c2cnc3[nH]cc(-c4ccc(F)cc4)c3c2Cl)cnc1N [3-amino-6-[4-chloro-3-(4-fluoro-phenyl)-1H-pyrrolo[2,3-b]pyridin-5-yl]-pyrazine-2-carboxylic acid dimethylamide] | C (0.1-0.01 μM) | 100 to 1000 | 100 to 1000
25 | CN(C)C(=O)c1cncc(-c2cnc3[nH]cc(-c4ccccc4)c3c2Cl)c1 [5-(4-Chloro-3-phenyl-1H-pyrrolo[2,3-b]pyridin-5-yl)-N,N-dimethyl-nicotinamide] | D (<0.01 μM) | > 1000 | > 1000
26 | CN(C)C(=O)c1cncc(-c2cnc3[nH]cc(-c4ccccc4Cl)c3c2Cl)c1 [5-[4-Chloro-3-(2-chloro-phenyl)-1H-pyrrolo[2,3-b]pyridin-5-yl]-N,N-dimethyl-nicotinamide] | D (<0.01 μM) | > 1000 | 100 to 1000
27 | Cc1noc(C)c1-c1c[nH]c2ncc(-c3cncc(C(=O)N(C)C)c3)c(Cl)c12 [5-[4-Chloro-3-(3,5-dimethyl-isoxazol-4-yl)-1H-pyrrolo[2,3-b]pyridin-5-yl]-N,N-dimethyl-nicotinamide] | B (1.0-0.1 μM) | > 1000 | > 1000

Reference: patent publication US8158647B2, “Substituted pyrrolopyridines and pyrazolopyridines as kinase modulators” (SGX Pharmaceuticals, Inc., priority 2007, dated 2012)
